From ChEMBL document CHEMBL1201862, “PubChem BioAssay data set” (2004)
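48-hour exposure; five concentrations; linearly interpolated endpoints. Abbreviation: GI50, concentration required for 50% inhibition of growth.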 The source made the active and inactive calls. No stated cut-off is given here; in the data, active = GI50 up to about 1.1 µM and inactive = higher.

What was measured:
Assay in all cases: inhibition of tumour cell growth, NCI panel, 48 h
[1] = system: 786-0
[2] = system: NCI-H23
[3] = system: U-251
[4] = system: IGROV-1
[5] = system: M14
[6] = system: MDA-MB-435
[7] = system: SF-295
[8] = system: UO-31
[9] = system: OVCAR-5
[10] = system: HCC 2998
[11] = system: T47D
[12] = system: RPMI-8226
[13] = system: Malme-3M
[14] = system: NCI/ADR-RES
[15] = system: MOLT-4
[16] = system: LOX IMVI
[17] = system: UACC-62
[18] = system: DU-145
[19] = system: HL-60

Measured: GI50

OC12COc3ccccc3C1Oc1ccccc1C2 (stereo not given)
inactive: [1] > 100 µM | [2] > 100 µM | [3] > 100 µM | [4] > 100 µM | [5] > 100 µM | [6] > 100 µM | [7] > 100 µM | [8] > 100 µM | [9] > 100 µM | [10] > 100 µM | [11] > 100 µM | [12] > 100 µM | [13] > 100 µM | [14] > 100 µM | [15] > 100 µM | [16] > 100 µM | [17] > 100 µM | [18] > 100 µM

N#C/C(N)=C(\C#N)NC(=O)C(=O)N/C(C#N)=C(\N)C#N
inactive: [1] > 100 µM | [2] > 100 µM | [3] > 100 µM | [4] > 100 µM | [5] > 100 µM | [6] > 100 µM | [7] 57.8 µM | [8] > 100 µM | [9] > 100 µM | [10] > 100 µM | [11] > 100 µM | [12] > 100 µM | [13] 59.6 µM | [14] > 100 µM | [15] 63.1 µM | [16] > 100 µM | [17] > 100 µM | [18] > 100 µM

CC1=NN(c2nc(N)nc(CCl)n2)CC1
inactive: [1] 10.1 µM | [2] 19.3 µM | [3] 29.4 µM | [4] 7.14 µM | [5] 25 µM | [6] 32 µM | [7] 30.2 µM | [8] 7.76 µM | [9] 20 µM | [10] 31.2 µM | [11] 74.8 µM | [12] 38.9 µM | [14] 24.2 µM | [15] 19.7 µM | [19] 12 µM | [17] 15.2 µM | [18] 56.4 µM

Cc1ccc(S(=O)(=O)N2CCSCCN(S(=O)(=O)c3ccc(C)cc3)CCN(S(=O)(=O)c3ccc(C)cc3)CC2)cc1
inactive: [1] 16.7 µM | [2] 79.4 µM | [3] 20 µM | [4] 56.2 µM | [5] > 100 µM | [6] > 100 µM | [7] 26.4 µM | [8] 92.7 µM | [9] > 100 µM | [10] > 100 µM | [11] 8.75 µM | [12] > 100 µM | [14] > 100 µM | [15] > 100 µM | [19] > 100 µM | [17] > 100 µM | [18] > 100 µM
